Laboratory results published in US9029095B2, “Method and kits for determining platelet susceptibility to activation in a patient” (Institut National de la Sante et de la Recherche Medicale …, priority 2010, dated 2015).
“And” between values parts separate entries of the source, which are not always exact repeats. Equal values may be shown once. “Also recorded” adds a separate entry of the source. Read-outs that look alike come from different tables or passages of the source. Values belong to the molecule of their own block, whether it stands above or below them.

Columns and labels:
[1] = system: GPVI dimerization on platelets; assay: Effect of agonists and inhibitors on 9E18 binding to platelets (GPVI dimerization), flow cytometry; format: cell-based, human; conditions: for effect on 9E18 binding / GPVI dimerization of activated platelets / effect on 9E18 binding to resting as well as activated platelets: ADP-; for effect on 9E18 binding / GPVI dimerization of activated platelets: TRAP- or PMA-activated platelets; for effect on 9E18 binding to resting as well as activated platelets: TRAP- or PMA-activated washed platelets
[2] = system: P-selectin exposure on platelets; assay: P-selectin exposure on platelets, flow cytometry; format: cell-based, human; conditions: washed platelets
[3] = system: FcRγ; assay: FcRγ phosphorylation in activated platelets; format: cell-based, human; conditions: conditions leading to GPVI dimerization
[4] = system: platelet adhesion to immobilized collagen; assay: GPVI-dependent platelet adhesion to immobilized collagen (static); format: cell-based, human; conditions: PMA-treated platelets
[5] = system: ADP-induced GPVI dimerization; assay: ADP-induced 9E18 binding to platelets (PRP) of patients treated with P2Y12 antagonists, ex vivo; format: in vivo, human
Excerpt: FIG. 3: 9E18 as a marker of platelet activation and reactivity: Blood samples were obtained from (A) a cohort of patients with coronary artery disease admitted for percutaneous coronary intervention (n=45) and (B) healthy volunteers (n=40). For each subject, GPVI dimerization, represented by the extent of 9E18 positive platelets, is plotted against P-selectin exposure. Blood samples were obtained from (C) patients treated by prasugel and (D) healthy volunteers. For each subject the binding of FITC-coupled 9E18 to platelets was measured by flow cytometry after incubation of the PRP with buffer or ADP (10 μM) for 20 min.
FIG. 4: 9E18 as a marker of platelet activation and reactivity A: 9E18 binding to platelets and P-selectin exposure were measured in blood samples (PRP) obtained from a cohort of patients with CAD admitted for percutaneous coronary intervention (n=45). B: ADP-induced binding of 9E18 to platelets was measured on blood samples (PRP) from normal subjects and patients with CAD treated by clopidogrel (n=26). Results are expressed as the ratio between the levels of 9E18 binding to ADP-stimulated/non-stimulated samples×100.C: ADP-induced binding to platelets of patients treated by clopidogrel was plotted against corresponding data of the VASP phosphorylation assay.
Blood samples were obtained from a cohort of patients with coronary artery disease (CAD) referred to the department of cardiology of Bichat hospital for percutaneous coronary intervention (BIOCORE-2 study, Clinical Trial Registration—URL: http://clinicaltrials.gov/ct2/show/NCT01186666?term=NCT01186666&rank=1). The study complies with the Declaration of Helsinky and was approved by the institutional ethics committee. All of the patients provided written informed consent. Blood was drawn on 0.109M citrate the day after percutaneous coronary intervention (PCI). PRP, a waste of the established protocol, was used for this study. Analysis was performed less than one hour after blood sampling, on PRP using FITC-coupled 9E18, 3J24 or anti-P-selectin. […]

[6] = target: T1, GPVI dimers on shear-activated platelets (Homo sapiens, UniProt Q9HCN6); assay: Shear-induced platelet activation, 9E18 binding; format: cell-based; conditions: washed platelets
T1 construct: Blood was obtained from healthy volunteers; endogenous in cells; host or cells: human platelets (whole blood, PRP, washed platelets or lysates) from healthy volunteers or coronary artery disease patients
T1 sequence (Q9HCN6 21-339): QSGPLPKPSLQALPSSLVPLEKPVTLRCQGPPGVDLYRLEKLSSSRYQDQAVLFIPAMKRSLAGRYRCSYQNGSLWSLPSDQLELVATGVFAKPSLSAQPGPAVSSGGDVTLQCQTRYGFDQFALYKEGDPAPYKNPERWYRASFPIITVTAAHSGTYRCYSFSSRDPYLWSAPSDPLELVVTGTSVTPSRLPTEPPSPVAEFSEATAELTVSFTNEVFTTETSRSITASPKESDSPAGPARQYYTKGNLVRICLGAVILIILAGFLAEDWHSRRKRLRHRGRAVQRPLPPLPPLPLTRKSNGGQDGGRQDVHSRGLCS
T1 sequence (P30273 19-86 partner): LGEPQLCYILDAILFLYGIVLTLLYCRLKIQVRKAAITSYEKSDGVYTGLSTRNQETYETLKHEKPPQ

[7] = target: T2, 9E18 binding to stimulated platelets (Homo sapiens, UniProt Q9HCN6); assay: Inhibition of 9E18 binding to stimulated platelets by soluble GPVI or IV.3; format: cell-based
T2 construct: Blood was obtained from healthy volunteers; endogenous in cells; host or cells: human platelets (whole blood, PRP, washed platelets or lysates) from healthy volunteers or coronary artery disease patients
T2 sequence (Q9HCN6 21-339): T1 sequence (Q9HCN6 21-339)
T2 sequence (P30273 19-86 partner): T1 sequence (P30273 19-86 partner)
Protocol: Resting and activated platelets (5×10^7 mL^−1 in whole blood or PRP or buffer) were incubated with FITC-coupled anti-GPVI or P-selectin antibodies for 20 min and, when needed fixed with 1% PFA. Samples were analyzed by flow cytometry using Epics XL.MCL (Coulter) or LSRII (Becton Dickinson Biosciences) apparatus. Platelet glycoprotein quantification was performed using the quantification kit, Platelet GP screen (Byocytex, Marseille, France).

[8] = target: T3, 9E18 binding to immobilized GPVI-Fc (Homo sapiens, UniProt Q9HCN6); assay: Competition: binding of 9E18 to immobilized GPVI-Fc in presence of soluble GPVI
T3 construct: Recombinant soluble GPVI was obtained as the extracellular domain of human GPVI; made in house; host or cells: HEK cells
T3 sequence (Q9HCN6 21-267 limits assumed): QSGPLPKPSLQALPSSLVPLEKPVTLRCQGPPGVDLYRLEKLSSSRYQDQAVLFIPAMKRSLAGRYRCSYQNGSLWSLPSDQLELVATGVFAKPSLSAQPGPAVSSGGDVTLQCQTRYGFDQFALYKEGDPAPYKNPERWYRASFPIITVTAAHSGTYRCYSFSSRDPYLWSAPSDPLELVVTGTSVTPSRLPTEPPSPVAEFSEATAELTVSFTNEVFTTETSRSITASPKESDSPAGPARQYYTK

[9] = target: collagen; assay: Binding of recombinant soluble GPVI to collagen (purified proteins, microtitration wells); parameters: species or system equine; conditions: Example 1

Molecule: CC(=O)N[C@@H](C(=O)O)C(C)(C)SN=O (racemic) [SNAP]
effect on 9E18 binding / GPVI dimerization of activated platelets [1]: same effect; also recorded: inhibited
effect on 9E18 binding to resting as well as activated platelets [1]: inhibited

Molecule: CSc1nc(N)c2ncn([C@@H]3O[C@H](COP(=O)(O)O)[C@@H](O)[C@H]3O)c2n1 [2MeSAMP]
effect on 9E18 binding to ADP- or TRAP-stimulated platelets [1]: inhibited; also recorded: prevented
effect on ADP-induced 9E18 binding to platelets [1]: blocked

Molecule: Nc1ncnc2c1ncn2[C@@H]1O[C@H](COP(=O)(O)OP(=O)(O)O)[C@@H](O)[C@H]1O [ADP, adenosine diphosphate]
surface exposure of P-selectin induced by agonist [2]: induced surface exposure of P-selectin
FcRγ phosphorylation in activated platelets [3]: not phosphorylated
effect of agonist on binding of 9E18 to platelets [1]: increased

Molecule: CNC[C@H](O)c1ccc(O)c(O)c1 [Epinephrine]
factor of increase of 9E18 binding to platelets [1]: 1.5

Molecule: CCCCC[C@H](O)/C=C/[C@H]1[C@H](O)CC(=O)[C@@H]1CCCCCCC(=O)O [PGE1, prostaglandin E1]
effect on 9E18 binding to ADP- or TRAP-stimulated platelets ([1]; ADP or TRAP): dropped to basal level
effect on 9E18 binding / GPVI dimerization of activated platelets [1]: drastically reduced; also recorded: inhibited
effect on PMA-induced 9E18 binding to platelets ([1]; PMA): greatly decreased
effect on 9E18 binding in the absence of agonist ([1]; preincubation, no agonist): lowered
effect on 9E18 binding to resting as well as activated platelets [1]: reduced

Molecule: CCCCCCCCCCCCCC(=O)O[C@@H]1[C@@H](C)[C@@]2(O)[C@@H](C=C(CO)C[C@]3(O)C(=O)C(C)=C[C@@H]23)[C@@H]2C(C)(C)[C@]12OC(C)=O [PMA]
FcRγ phosphorylation in activated platelets [3]: not phosphorylated
effect on GPVI-dependent platelet adhesion to immobilized collagen [4]: increase
effect of agonist on binding of 9E18 to platelets [1]: significantly increased
level of 9E18 binding to PMA-treated platelets ([1]; PMA alone): 31.5±4% and 27.7%

Molecule: Cc1ccc(-c2nn(C(C)(C)C)c3ncnc(N)c23)cc1 [PP1]
level of PMA-induced 9E18 binding in presence of inhibitor ([1]; 20 μM inhibitor, PMA-treated platelets): 28.4%

Molecule: COC(=O)[C@H](c1ccccc1Cl)N1CCc2sccc2C1 [clopidogrel, (+)-(S)-methyl 2-(2-chlorophenyl)-2-(6,7-dihydrothieno[3,2-c]pyridin-5(4H)-yl)acetate]
ADP-induced 9E18 binding response in treated patients vs normal subjects ([5]; 75 mg, PRP): highly significant reduction

Molecule: COc1ccc2c(c1)c(CC(=O)O)c(C)n2C(=O)c1ccc(Cl)cc1 [indomethacine, Indomethacin]
effect on 9E18 binding to ADP- or TRAP-stimulated platelets ([1]; ADP or TRAP): no effect

Molecule: CC(=O)Oc1cc2c(s1)CCN(C(C(=O)C1CC1)c1ccccc1F)C2 (stereo not shown) [prasugrel]
ADP-induced increase of 9E18 binding to platelets of treated patients ([5]; PRP, ADP 10 μM, good responders by VASP test): not to platelets of 9 patients treated by prasugrel; also recorded: blocked
9E18 binding and VASP phosphorylation in response to ADP ([5]; one treated patient (low response)): remained increased

Molecule: apyrase
effect on ADP-induced 9E18 binding to platelets ([1]; ADP): fully prevented
inhibition of ADP-induced binding of 9E18 ([1]; ADP): 85%
reduction of TRAP-induced binding of 9E18 [1]: 75%
reduction of TRAP-induced binding of 9E18 ([1]; listed as Apyrase): 50%

effect of addition on shear-induced platelet aggregation and level of 9E18 binding [6]: parallel increase
Molecule: vWF: von Willebrand factor added to washed platelets

inhibition of 9E18 binding to stimulated platelets [7]: not
inhibition of 9E18 binding to stimulated platelets ([7]; listed as monomers): not by monomers
IC50, inhibition of 9E18 binding to immobilized GPVI-Fc by soluble GPVI [8]: 3.7 ± 2.2 µg/mL
inhibition of 9E18 binding to GPVI-Fc ([8]; GPVI-His up to 10 μg·mL^−1): 70%
IC50 ([8]; molar value in brackets, Example 1, read-out: IC50, inhibition of 9E18 binding to immobilized GPVI-Fc by soluble GPVI): 74 nM
Kd ([8]; value in brackets after IC50, Example 2, read-out: Kd from competition of 9E18 binding to GPVI-Fc): 78 nM
affinity for collagen [9]: 14.7 ± 3.27 µg/mL
B1: GPVI-His: extracellular domain of human GPVI fused to a poly-His Tag, monomeric (protein, UniProt Q9HCN6 21-267, looked up)
extracellular domain: T3 sequence (Q9HCN6 21-267 limits assumed)
modifications: extracellular domain poly-His tag
notes: extracellular domain of human GPVI fused to a poly-His Tag, monomeric
